Earlier results on three molecules are cited in paper PMC12300650, “Development and Characterization of a New Oral Antileishmanial Bis(pyridine-2-Carboxamidine) Drug Through Innovative Dissolution Testing in Biorelevant Media Combined with Pharmacokinetic Studies” (Pharmaceutics, 2025).

Structures are written as SMILES. Like-named read-outs stand apart in the source and are kept apart here.

Where [1] appears, read: FaSSIF pH 6.5, ref Higashino et al., 2023 [23].
The mark [2] stands for this setting: Two state FaSSGF to FaSSIF, ref Arnold et al., 2011 [22].
Setting [3] is: FaSSIF pH 6.8, ref Naing et al., 2024 [24].

As for `OCCN(CCO)c1nc(N2CCCCC2)c2nc(N(CCO)CCO)nc(N3CCCCC3)c2n1` [Dipyridamole], the Precipitation time is, setting by setting: under setting [1], 60 to 120 min; under setting [2], 20 to 180 min. Besides, the “Supersaturation Time” value runs as follows: under setting [1], 30 min; under setting [2], 20 min.
As for `CC(=O)N1CCN(c2ccc(OCC3COC(Cn4ccnc4)(c4ccc(Cl)cc4Cl)O3)cc2)CC1` (centres unmarked) [Ketoconazole], under setting [1], the Precipitation time is 30 to 60 min and the “Supersaturation Time” value is listed as 30 min.
Take `CC(C)c1nc(CN(C)C(=O)N[C@H](C(=O)N[C@@H](Cc2ccccc2)C[C@H](O)[C@H](Cc2ccccc2)NC(=O)OCc2cncs2)C(C)C)cs1` [Ritonavir]: under setting [3], the Precipitation time is 30 to 60 min and the “Supersaturation Time” value is 30 min.
